Experiments:
HL-60 [1] = assay: Cytotoxicity against human HL-60 cells by MTT assay; format: functional, cell-based
SW480 [2] = assay: Cytotoxicity against human SW480 cells by MTT assay; format: functional, cell-based
U-251 [3] = assay: Cytotoxicity against human U-251 cells by MTT assay; format: functional, cell-based
MCF7 [4] = assay: Cytotoxicity against human MCF7 cells by MTT assay; format: functional, cell-based
MCF7 [5] = assay: Cytotoxicity against human MCF7 cells; format: functional, cell-based
SW480 [6] = assay: Cytotoxicity against human SW480 cells; format: functional, cell-based
HL-60 [7] = assay: Cytotoxicity against human HL-60 cells; format: functional, cell-based
U-251 [8] = assay: Cytotoxicity against human U-251 cells; format: functional, cell-based
L02 = assay: Cytotoxicity against human L02 cells by MTT assay; format: cell-based

## C=C(CC[C@@H](C)[C@H]1CC[C@H]2C3=C(C(=O)C[C@]12C)[C@@]1(C)CCC(=O)[C@@H](C)[C@@H]1C[C@H]3OC(C)=O)[C@H](C)C(=O)Nc1nc[nH]n1
HL-60 [1]
  IC50: > 100 µM
SW480 [2]
  IC50: > 100 µM
U-251 [3]
  IC50: 93.2 µM
MCF7 [4]
  IC50: > 100 µM

## C=C(CC[C@@H](C)[C@H]1CC[C@H]2C3=C(C(=O)C[C@]12C)[C@@]1(C)CCC(=O)[C@@H](C)[C@@H]1C[C@H]3OC(C)=O)[C@H](C)C(=O)Nc1[nH]cnc1C(N)=O
HL-60 [1]
  IC50: > 100 µM
SW480 [2]
  IC50: 17.9 µM
U-251 [3]
  IC50: 17.1 µM
MCF7 [4]
  IC50: 17.6 µM

## C=C(CC[C@@H](C)[C@H]1CC[C@H]2C3=C(C(=O)C[C@]12C)[C@@]1(C)CCC(=O)[C@@H](C)[C@@H]1CC3=O)[C@H](C)C(=O)OC
MCF7 [5]
  IC50: 50.7 µM
SW480 [6]
  IC50: > 100 µM
HL-60 [7]
  IC50: 25.2 µM
U-251 [8]
  IC50: 44.9 µM

## C=C(CC[C@@H](C)[C@H]1CC[C@H]2C3=C(C(=O)C[C@]12C)[C@@]1(C)CCC(=O)[C@@H](C)[C@@H]1C[C@H]3OC(C)=O)[C@H](C)C(=O)/N=c1/cc(CCc2ccccc2)[nH][nH]1
HL-60 [1]
  IC50: > 100 µM
SW480 [2]
  IC50: > 100 µM
U-251 [3]
  IC50: > 100 µM
MCF7 [4]
  IC50: > 100 µM

## C=C(CC[C@@H](C)[C@H]1CC[C@H]2C3=C(C(=O)C[C@]12C)[C@@]1(C)CCC(=O)[C@@H](C)[C@@H]1CC3=O)[C@H](C)C(=O)O [ANTCIN B]
MCF7 [5]
  IC50: > 100 µM
SW480 [6]
  IC50: > 100 µM
HL-60 [7]
  IC50: > 100 µM
U-251 [8]
  IC50: > 100 µM

## C=C(CC[C@@H](C)[C@H]1CC[C@H]2C3=C(C(=O)C[C@]12C)[C@@]1(C)CCC(=O)[C@@H](C)[C@@H]1C[C@H]3OC(C)=O)[C@H](C)C(=O)O
MCF7 [5]
  IC50: > 100 µM
SW480 [6]
  IC50: > 100 µM
HL-60 [7]
  IC50: > 100 µM
U-251 [8]
  IC50: > 100 µM

## C=C(CC[C@@H](C)[C@H]1CC[C@H]2C3=C(C(=O)C[C@]12C)[C@@]1(C)CCC(=O)[C@@H](C)[C@@H]1C[C@H]3OC(C)=O)[C@H](C)C(=O)OC
MCF7 [5]
  IC50: 46.3 µM
SW480 [6]
  IC50: 15.4 µM
HL-60 [7]
  IC50: 16.8 µM
U-251 [8]
  IC50: 11.4 µM

## C=C(CC[C@@H](C)[C@H]1CC[C@H]2C3=C(C(=O)C[C@]12C)[C@@]1(C)CC/C(=N\O)[C@@H](C)[C@@H]1C/C3=N/O)[C@H](C)C(=O)OC
HL-60 [1]
  IC50: 3.7 µM
L02
  Activity: Non-Toxic
SW480 [2]
  IC50: 2.2 µM
U-251 [3]
  IC50: 3.3 µM
MCF7 [4]
  IC50: 18.2 µM

## C=C(CC[C@@H](C)[C@H]1CC[C@H]2C3=C(C(=O)C[C@]12C)[C@@]1(C)CCC(=O)[C@@H](C)[C@@H]1C[C@H]3OC(C)=O)[C@H](C)C(=O)Nc1ccc2ccccc2n1
HL-60 [1]
  IC50: 96.3 µM
SW480 [2]
  IC50: > 100 µM
U-251 [3]
  IC50: 95.8 µM
MCF7 [4]
  IC50: > 100 µM

## C=C(CC[C@@H](C)[C@H]1CC[C@H]2C3=C(C(=O)C[C@]12C)[C@@]1(C)CCC(=O)[C@@H](C)[C@@H]1C[C@H]3OC(C)=O)[C@H](C)C(=O)Nc1cccc2cccnc12
HL-60 [1]
  IC50: 89.2 µM
SW480 [2]
  IC50: > 100 µM
U-251 [3]
  IC50: > 100 µM
MCF7 [4]
  IC50: > 100 µM

## CC(=O)O[C@H]1C(=O)[C@@]2(C)[C@H]([C@H](OC(=O)c3ccccc3)[C@]3(O)C[C@H](OC(=O)[C@H](O)[C@@H](NC(=O)c4ccccc4)c4ccccc4)C(C)=C1C3(C)C)[C@]1(OC(C)=O)CO[C@@H]1C[C@@H]2O [PACLITAXEL]
HL-60 [1]
  IC50: 0.08 µM

## C=C(CC[C@@H](C)[C@H]1CC[C@H]2C3=C(C(=O)C[C@]12C)[C@@]1(C)CCC(=O)[C@@H](C)[C@@H]1C[C@H]3OC(C)=O)[C@H](C)C(=O)Nc1ncc2ccccc2n1
HL-60 [1]
  IC50: 8.9 µM
L02
  Activity: Non-Toxic
SW480 [2]
  IC50: 40.8 µM
U-251 [3]
  IC50: 2.9 µM
MCF7 [4]
  IC50: 8.6 µM

## C=C(CC[C@@H](C)[C@H]1CC[C@H]2C3=C(C(=O)C[C@]12C)[C@@]1(C)CCC(=O)[C@@H](C)[C@@H]1C[C@H]3OC(C)=O)[C@H](C)C(=O)Nc1ccccc1N
HL-60 [1]
  IC50: 0.7 µM
L02
  Activity: Non-Toxic
SW480 [2]
  IC50: > 100 µM
U-251 [3]
  IC50: 27.4 µM
MCF7 [4]
  IC50: 29.2 µM

## C=C(CC[C@@H](C)[C@H]1CC[C@H]2C3=C(C(=O)C[C@]12C)[C@@]1(C)CCC(=O)[C@@H](C)[C@@H]1C[C@H]3OC(C)=O)[C@H](C)C(=O)Nn1cnnc1
HL-60 [1]
  IC50: > 100 µM
SW480 [2]
  IC50: > 100 µM
U-251 [3]
  IC50: 82.4 µM
MCF7 [4]
  IC50: > 100 µM

## C=C(CC[C@@H](C)[C@H]1CC[C@H]2C3=C(C(=O)C[C@]12C)[C@@]1(C)CCC(=O)[C@@H](C)[C@@H]1C[C@H]3OC(C)=O)[C@H](C)C(=O)Nc1ccc2[nH]ccc2c1
HL-60 [1]
  IC50: > 100 µM
SW480 [2]
  IC50: > 100 µM
U-251 [3]
  IC50: 10.4 µM
MCF7 [4]
  IC50: 12.3 µM
